Article PMC9311641, “Antitubercular, Cytotoxicity, and Computational Target Validation of Dihydroquinazolinone Derivatives” (Antibiotics, 2022)
≈ marks a conversion by molar mass, not a printed value. Where “and” joins values, the source holds several entries; their conditions need not be identical. Equal entries are not always repeated.

Tests used:
Assay type in all cases: cell-based
MTT cytotoxicity assay = details: mean ± SD of three replicates
Procedure: (§1) Fibroblast cells were cultured in Iscove’s Modified Dulbecco’s Medium (Euro Clone, Italy) as recommended by ATCC. The media was supplemented with 10% heat-inactivated fetal bovine serum (FBS) (Ebsdorfergrund, Germany), 1% of 2 mM L-glutamine, 100 U/mL penicillin, and 100 µg/mL streptomycin. According to the cells’ growth profile, fibroblast-seeding density was 1 × 10^5 cell/well. Cell viability was determined by trypan blue exclusion using a hemocytometer.
(§2) The MTT colorimetric assay was used to assess the effect of the synthesized compounds on the viability of the fibroblast cell lines. […] A volume of 10 mL of the culture media was added, and the cell suspension was centrifuged at 1000 rpm for 10 min. The pellets were resuspended in a 10 mL medium to make a single-cell suspension. […] The cell suspension was diluted to give the optimal seeding density, and 100 µL of the cell suspension was plated in a 96-well plate. Cells were cultured at 37 °C in a humidified atmosphere of 5% CO2. After 24 h incubation, the cells were treated with 100 µM of the synthesized compounds (diluted in culture media to yield the required concentration) and then incubated for 72 h. At the end of the exposure time, 15 µL of MTT stock solution (5 mg/mL in sterile PBS, pH 7.4) (Promega, Madison, WI, USA) was added to each well and incubated for 3 h. After that, 100 µL of solubilizing stop solution was added to each well to solubilize the dark violet formazan crystals. The optical densities at 570 nm were then measured using a micro-plate reader (Biotek, Winooski, VT, USA), and the percentage of cell viability was calculated with respect to a control corresponding to untreated cells.

[1] = system: MDR strains of Mycobacterium tuberculosis; assay: Whole-cell anti-TB MIC, Resazurin Microplate Assay (REMA); details: for Level of Activity (MIC), MDR: MDR MTB strains, REMA; for MIC: Mycobacterium tuberculosis, read-out: Level of Activity (MIC), MDR
[2] = system: Mycobacterium tuberculosis H37Rv (ATCC 25177); assay: as above; details: MTB H37Rv; for MIC: Mycobacterium tuberculosis, REMA, read-out: Level of Activity (MIC), Susceptible (H37Rv)
[3] = system: normal human skin fibroblast cells (CCD-1064SK); assay: MTT cytotoxicity assay; details: 72 h, mean ± SD of three replicates
Procedure: as §1, §2

[4] = human, CCD-1064SK normal human skin fibroblast cells

Structure (SMILES) | cytotoxicity at 72 h, 100 µM (MTT cytotoxicity assay; [4]) | Level of Activity (MIC), MDR [1] | MIC [2] | Cytotoxicity (%) at 100 µM [3] | MIC [1] | MIC against susceptible H37Rv M. tuberculosis strain [2] | cytotoxicity at 72 h, 100 µM (MTT cytotoxicity assay; normal human fibroblast cells)
O=C1NC(c2ccc(F)cc2)Nc2ccccc21 (centres unmarked) [Compound 3j] | 44.1 ± 11.5% | No activity | > 64 µg/mL |  |  |  | 
O=C1NC(c2ccc(OC(F)(F)F)cc2)Nc2ccccc21 (centres unmarked) [Compound 3d] | 47.6 ± 1.6% | No activity | > 64 µg/mL |  |  |  | 
COc1cc([N+](=O)[O-])ccc1C1NC(=O)c2ccccc2N1 (centres unmarked) [Compound 3m] | 31% |  | 2 µg/mL (≈ 6.68 µM) | 30% and 30.9 ± 8.8% | > 64 µg/mL | 2 µg/mL (≈ 6.68 µM) | 
O=C1NC(c2cccc([N+](=O)[O-])c2)Nc2ccccc21 (centres unmarked) [Compound 3i] | 24.1 ± 3.9% | No activity | > 64 µg/mL |  |  |  | 
CN(C)c1ccc(C2NC(=O)c3ccccc3N2)cc1 (centres unmarked) [Compound 3h] | 54.6 ± 2.8% | No activity | > 128 µg/mL |  |  |  | 
O=C1NC(c2ccc(Cl)cc2)Nc2ccccc21 (centres unmarked) [Compound 3f] | 57.6 ± 3.7% | No activity | > 128 µg/mL |  |  |  | 
O=C1NC(c2c[nH]cn2)Nc2ccccc21 (centres unmarked) [Compound 3k] |  |  | 4 µg/mL (≈ 18.7 µM) |  | 16 µg/mL (≈ 74.7 µM) | 4 µg/mL (≈ 18.7 µM) | 19.2 ± 4.9%
COc1ccc(C2NC(=O)c3ccccc3N2)cc1OC (centres unmarked) [Compound 3g] | 32.5 ± 11% | No activity | 64 µg/mL (≈ 225 µM) |  |  |  | 
O=C1NC(c2cccc(I)c2)Nc2ccccc21 (centres unmarked) [Compound 3e] | 72 ± 8.3% | No activity | 128 µg/mL (≈ 366 µM) |  |  |  | 
N#Cc1ccc(C2NC(=O)c3ccccc3N2)cc1 (centres unmarked) [Compound 3b] | 19.5 ± 5% | No activity | > 64 µg/mL |  |  |  | 
COc1ccc(C2NC(=O)c3ccccc3N2)cc1 (centres unmarked) [Compound 3a] |  |  | 64 µg/mL (≈ 252 µM) |  | > 128 µg/mL |  | 28.8 ± 0.6%
O=C1NC(c2cc(Br)ccc2F)Nc2ccccc21 (centres unmarked) [Compound 3l, 2-(5-bromo-2-fluorophenyl)-2,3-dihydroquinazolin-4(1H)-one] | 36% |  | 2 µg/mL (≈ 6.23 µM) | 36.3 ± 4.2% | > 64 µg/mL | 2 µg/mL (≈ 6.23 µM) | 
O=C1NC(c2cccc(O)c2)Nc2ccccc21 (centres unmarked) [Compound 3c] | 58.5 ± 1.1% |  | 8 µg/mL (≈ 33.3 µM) |  | > 32 µg/mL |  | 
